# From BindingDB's records for doi:10.1021/jm00010a025 (Merck Sharp & Dohme Research Laboratories, 1995)
# Assay: Binding activity against 5-hydroxytryptamine 2C receptor from pig cortex membrane using [3H]mesulergine as radioligand.
row,Compound,IC50 [nM]
1,CCn1nnnc1Cc1ccc2[nH]cc(CCN(C)C)c2c1,> 10000
2,CN(C)CCc1c[nH]c2ccc(Cc3nnn[nH]3)cc12,> 10000
3,Cc1nccn1Cc1ccc2[nH]cc(CCN(C)C)c2c1,3160
4,CN(C)CCc1c[nH]c2ccc(Cn3ccnc3)cc12,3980
5,CN(C)CCc1c[nH]c2ccc(Cn3ncnn3)cc12,1000
6,CN(C)CCc1c[nH]c2ccc(Cc3ncnn3C)cc12,> 10000
7,CN(C)CCc1c[nH]c2ccc(Cn3cnnn3)cc12,2000

# Assay: Binding activity against 5-hydroxytryptamine 3 receptor from rat cortex homogenate using [3H]-Q-ICS 205-930 as radioligand.
row,Compound,IC50 [nM]
1,CCn1nnnc1Cc1ccc2[nH]cc(CCN(C)C)c2c1,25.1
2,CN(C)CCc1c[nH]c2ccc(Cc3nnn[nH]3)cc12,3980
3,CN(C)CCc1c[nH]c2ccc(Cc3nnn(C)n3)cc12,79.4
4,CCn1nnc(Cc2ccc3[nH]cc(CCN(C)C)c3c2)n1,126
5,Cc1nccn1Cc1ccc2[nH]cc(CCN(C)C)c2c1,63.1
6,CN(C)CCc1c[nH]c2ccc(Cc3nnnn3C)cc12,25.1
7,CN(C)CCc1c[nH]c2ccc(Cn3ncnn3)cc12,39.8
8,CN(C)CCc1c[nH]c2ccc(Cc3nncn3C)cc12,25.1
9,Cc1nccn1-c1ccc2[nH]cc(CCN(C)C)c2c1,7.94
10,CN(C)CCc1c[nH]c2ccc(Cn3cnnn3)cc12,39.8

# Assay: as above
# Remark: another data set of the same source
row,Compound,IC50 [nM]
1,CN(C)CCc1c[nH]c2ccc(Cn3ccnc3)cc12,31.6
2,CN(C)CCc1c[nH]c2ccc(Cc3ncnn3C)cc12,100

# Assay: Binding activity against 5-hydroxytryptamine 3 receptor from rat cortex homogenate using [3H]-Q-ICS 205-930 as radioligand; NA Not Available
row,Compound,IC50 [nM]
1,CN(C)CCc1c[nH]c2ccc(Cn3ccnn3)cc12,50.1
